Experimental data: patent US20250321223A1, “ENGINEERING CHEMICALLY INDUCIBLE SPLIT PROTEIN ACTUATORS (CISPA)” (KEMIJSKI INSTITUT, priority 2021, published 2025)

Tests used:
[1] = system: split dihydrofolate reductase (DHFR); experiment: CISPA sensor, split DHFR fused to split firefly luciferase, in HEK293T cells; format: cell-based, human; conditions: increasing ligand concentration, compared to cells not stimulated, FIG. 3B
Experimental: (§1) Methods and techniques for cell line cultivation are well-known to experts in the field and are explained here only indicatively, with the intention of clarifying the example. Cell cultures of HEK293T cells were grown at 37° C. and 5% CO2. For cultivation, DMEM medium with 10% FBS, containing all the necessary nutrients and growth factors was used. When the cell population reached a sufficient density, the cells were transferred to a new flask and/or diluted. For use in experiments, the number of cells was determined by the Countess automated cell counter (Invitrogen). A 96-well microtiter plate, suitable for growing cell cultures, was inoculated with 2*10^4 cells per well 24 hours prior to transfection.
A constitutively expressed Renilla luciferase (phRL-TK http://www.promega.com/vectors/prltk.txf) was used as control of transfection efficiency.

[2] = system: split ligand binding domain of glucocorticoid receptor (GR2); experiment: CISPA sensor, split LBD of GR2 fused to split firefly luciferase, in HEK293T cells; format: cell-based, human; conditions: increasing ligand concentration, compared to cells not stimulated, FIG. 2B
Excerpt: (§2) The fusion constructs were simultaneously expressed in the HEK293T cell line. […] Following this dimerization, the split reporter fragments (nLuc and cLuc) are brought into the proximity, leading to their reconstitution and measurable output signal (emitted light). The plasmids encoding for the CISPA sensors based on split LBDs were transiently transfected into the HEK293T cell line. A constitutively expressed Renilla luciferase (phRL-TK http://www.promega.com/vectors/prltk.txf) was used as control of transfection efficiency.
as §1

[3] = molecular target: split ligand binding domain of estrogen receptor beta (ERβ) (Homo sapiens, UniProt Q92731); conditions: HEK293T cells, increasing ligand concentration, compared to cells not stimulated; FIG. 2C
Chain of split ligand binding domain of estrogen receptor beta (ERβ) (Q92731 with tags, fused parts or gaps): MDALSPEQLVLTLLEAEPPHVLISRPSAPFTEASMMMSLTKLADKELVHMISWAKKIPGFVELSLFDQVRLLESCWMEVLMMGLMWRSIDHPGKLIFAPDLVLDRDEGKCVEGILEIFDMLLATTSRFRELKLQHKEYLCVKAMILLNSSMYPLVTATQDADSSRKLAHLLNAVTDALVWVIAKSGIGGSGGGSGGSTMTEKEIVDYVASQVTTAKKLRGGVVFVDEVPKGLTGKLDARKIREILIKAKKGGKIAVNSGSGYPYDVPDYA
Chain of split ligand binding domain of estrogen receptor beta (ERβ) (Q92731 with tags, fused parts or gaps): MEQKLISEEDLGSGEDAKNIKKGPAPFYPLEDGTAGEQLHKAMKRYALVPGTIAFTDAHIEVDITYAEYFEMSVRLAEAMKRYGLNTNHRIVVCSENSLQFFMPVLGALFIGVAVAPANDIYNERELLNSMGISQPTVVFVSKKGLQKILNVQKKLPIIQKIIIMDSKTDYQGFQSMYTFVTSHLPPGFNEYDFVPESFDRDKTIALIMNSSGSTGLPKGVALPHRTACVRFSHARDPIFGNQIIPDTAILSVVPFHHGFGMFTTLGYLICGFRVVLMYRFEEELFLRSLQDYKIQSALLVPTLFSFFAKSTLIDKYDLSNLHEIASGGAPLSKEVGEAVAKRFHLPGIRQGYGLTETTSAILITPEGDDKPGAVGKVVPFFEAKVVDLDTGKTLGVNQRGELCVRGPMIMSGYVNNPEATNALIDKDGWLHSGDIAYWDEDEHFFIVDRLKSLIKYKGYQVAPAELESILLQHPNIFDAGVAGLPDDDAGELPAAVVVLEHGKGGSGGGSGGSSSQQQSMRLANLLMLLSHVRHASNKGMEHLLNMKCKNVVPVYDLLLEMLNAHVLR
Excerpt: as §2, §1

Compound: CN(Cc1cnc2nc(N)nc(N)c2n1)c1ccc(C(=O)N[C@@H](CCC(=O)O)C(=O)O)cc1 [methotrexate]
- firefly luciferase activity (dimerization of split DHFR CISPA sensor) [1]: an increase in firefly luciferase activity is observed

Compound: C[C@]12CCC(=O)C=C1CC[C@@H]1[C@@H]2[C@@H](O)C[C@@]2(C)[C@H]1CC[C@]2(O)C(=O)CO [cortisol]
- firefly luciferase activity (dimerization of split GR2 CISPA sensor) [2]: an increase in the firefly luciferase activity is observed

Compound: 4-hydroxytamoxifen
- firefly luciferase activity (dimerization of split ERβ CISPA sensor) [3]: concentration-dependent manner

Compound: C#CCC(Cc1cnc2nc(N)nc(N)c2n1)c1ccc(C(=O)N[C@@H](CCC(=O)O)C(=O)O)cc1 (stereo partly shown) [pralatrexate]
- firefly luciferase activity (dimerization of split DHFR CISPA sensor) [1]: an increase in firefly luciferase activity is observed
